Speed of sound and mass density data for 5 compounds are collected here from the NIST ThermoML archive (doi:10.1016/j.jct.2011.10.002).

Each structure is given as a SMILES string. Numbers after ± are expanded uncertainties.

For this data set the following is noted: 298.15 K, 101.33 kPa, Liquid; for speed of sound: Sing-around technique in a fixed-path interferometer; for mass density: Vibrating tube method.

Broadly, the speed of sound is the propagation velocity of pressure waves in the medium. By mass density is commonly meant mass per unit of volume. For the compound `Cc1ccccc1N` [2-methylaniline], the speed of sound is on record as 1602.6 ± 1.3 m/s and the mass density came to 994.351 ± 0.23 kg/m3.
Regarding `Cc1ccccn1` [2-methylpyridine], the speed of sound was found to be 1380.1 ± 2.1 m/s and the mass density worked out at 939.802 ± 0.77 kg/m3.
The corresponding values for `Cc1cccnc1` [3-methylpyridine] are 1424 ± 1.2 m/s and 952.002 ± 0.23 kg/m3.
The like results for `Cc1ccncc1` [4-methylpyridine] were, in that order, 1431.5 ± 1.2 m/s and 950.179 ± 0.23 kg/m3.
The like results for `C1CCOCC1` [tetrahydropyran] were, in that order, 1269.9 ± 2.1 m/s and 879.136 ± 0.7 kg/m3.
